Measurements reported in patent US20140294942A1, “ANTIVIRAL PEPTIDES EFFECTIVE AGAINST HEPATITIS C VIRUS” (THE REGENTS OF THE UNIVERSITY OF CALIFORNIA, priority 2011, published 2014).
“Also recorded” adds a separate entry of the source. Like-named read-outs stand apart in the source and are kept apart here. Bridge positions count the residues as written; N and C are the ends. Square brackets hold non-standard residues; d marks the D form. Peptide text beside a SMILES is read from it. Cha = N[C@@H](CC1CCCCC1)C(=O)O; Ahx = NCCCCCC(=O)O

Key:
[1] = tested on: HCV Renilla reporter virus
Method: (§1) Huh-7.5 cells were transfected with the indicated peptide construct and 48 hours later infected with the reporter virus for three hours. Cells were harvested 24 hours post infection, and Renilla activity was measured. All Renilla values were normalized to GFP transfection. […] Huh-7.5 cells were treated with the indicated concentrations of HCV4 or the arginine tag control peptide and immediately infected with the Renilla reporter virus for three hours. Cells were assayed 24 hours post infection for Renilla activity. ‘Percent protection’ refers to the percentage of decrease in Renilla levels compared with no peptide treatment.
pNRLFC was in vitro transcribed, and the purified RNA was electroporated into Huh-7.5 cells to generate infectious viral supernatant as previously described (Arumugaswami et al. (2008) PLoS Pathogens, 4: e1000182). Viral assays were done using the HCV reporter virus as described previously (Gonzalez et al. (2009) Hepatology50: 1756-1764).
(§2) Two cysteine residues were added to each end to allow for disulfide bond formation and to achieve a conformation similar to the C34 hairpin. Also an arginine tag was added to the N-terminal cysteine to allow for efficient uptake by cells without any transfection reagent. Huh-7.5 cells were treated with concentrations of HCV4 peptide ranging from 100 μM to 10 pM in the HCVcc system and were immediately infected with the HCV Renilla reporter virus.

[2] = tested on: NS5A-augmented IRES-mediated translation; test: Bicistronic HCV IRES reporter assay (Firefly/Renilla luciferase); type: cell-based, Hepatitis C virus; details: for effect of peptide treatment on NS5A-augmented IRES-mediated translation: cells treated with peptide and transfected with reporter construct and NS5A or GFP
From the text: FIG. 5A: Schematic of the bicistronic reporter construct used to measure IRESmediated translation. Firefly luciferase (FLuc) and Renilla luciferase (RLuc) are driven by HCV IRES and a 5′ cap, respectively. Each reporter has a stop codon to allow independent expression. Firefly to Renilla ratios are used to follow changes in levels of IRES-mediated translation. For all experiments, the IRES reporter, either NS5A or GFP, and a peptide construct (if indicated) were transfected into cells.
293T cells were transfected with HCV IRES reporter plasmid; either pMSCV5AFLAG or pMSCVGFP; and pCCL-CMV-IRES-EGFP plasmid expressing one of the following peptides: C34, NS5A domain II peptide, NS5A domain III peptide, NS3 peptide, or one of the C34 mutagenesis peptides. All transfections were done using Fugene 6 (Roche, 11814443001). 48 hours post transfection, Renilla and Firefly luciferase activity was determined using Dual Luciferase Assay System (Promega, E1910).
After identifying the C-terminal region of NS5A as the HSP70 binding site in vitro, we sought to determine whether this region has any functional significance. NS5A has been reported to increase IRES-mediated translation in a cell culture-based bicistronic reporter system (He et al. (2003) J. General Virol., 84: 535-543) (FIG. 5A). This reporter system consists of the Firefly luciferase open reading frame (ORF) driven by HCV IRES and Renilla luciferase ORF under the control of a 5′ cap (FIG. 5A). The ratio of Firefly to Renilla luciferase activity can be used to measure the levels of IRES-mediated translation. The C-terminal 34 amino acid peptide corresponding to amino acids 165-198 of NSSA domain I (hereafter referred to as C34) was tested for its effect on altering IRES-mediated translation. […]
We also assessed the impact of the HCV4 peptide on NS5A-augmented IRES-mediated translation. […]

replicon = details: reported in the literature, read-out: IC50 in Cell Culture; cited from earlier work
polymerase = polymerase (Hepatitis C virus genotype 1a, UniProt P27958); details: polymerase assay; reported in the literature; read-out: IC50 in in vitro Assays; cited from earlier work
polymerase, sequence (P27958 2421-3011): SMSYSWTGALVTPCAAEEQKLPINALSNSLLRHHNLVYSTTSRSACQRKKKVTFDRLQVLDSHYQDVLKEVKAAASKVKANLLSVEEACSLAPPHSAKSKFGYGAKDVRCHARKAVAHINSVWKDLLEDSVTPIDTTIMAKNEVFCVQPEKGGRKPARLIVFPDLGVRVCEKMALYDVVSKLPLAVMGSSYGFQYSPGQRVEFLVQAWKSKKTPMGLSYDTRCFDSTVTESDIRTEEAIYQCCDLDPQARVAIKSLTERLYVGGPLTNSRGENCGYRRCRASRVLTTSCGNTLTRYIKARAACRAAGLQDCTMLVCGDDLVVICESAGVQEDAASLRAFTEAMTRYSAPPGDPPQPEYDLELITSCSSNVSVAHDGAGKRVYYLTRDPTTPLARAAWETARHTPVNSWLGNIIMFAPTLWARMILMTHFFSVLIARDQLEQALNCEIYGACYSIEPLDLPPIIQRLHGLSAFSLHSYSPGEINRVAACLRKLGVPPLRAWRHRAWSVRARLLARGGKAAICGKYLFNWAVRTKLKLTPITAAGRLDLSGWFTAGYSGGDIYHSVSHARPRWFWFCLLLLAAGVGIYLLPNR

Huh-7.5 cells = tested on: Huh-7.5 cells
Method: as §1
Cell viability was determined using MTT Cell Proliferation assay (ATCC, 30-1010K).
as §2

protease = protease (Hepatitis C virus genotype 1a, UniProt P27958); details: protease assay; reported in the literature; read-out: IC50 in in vitro Assays; cited from earlier work
protease, sequence (P27958 1027-1657 limits assumed): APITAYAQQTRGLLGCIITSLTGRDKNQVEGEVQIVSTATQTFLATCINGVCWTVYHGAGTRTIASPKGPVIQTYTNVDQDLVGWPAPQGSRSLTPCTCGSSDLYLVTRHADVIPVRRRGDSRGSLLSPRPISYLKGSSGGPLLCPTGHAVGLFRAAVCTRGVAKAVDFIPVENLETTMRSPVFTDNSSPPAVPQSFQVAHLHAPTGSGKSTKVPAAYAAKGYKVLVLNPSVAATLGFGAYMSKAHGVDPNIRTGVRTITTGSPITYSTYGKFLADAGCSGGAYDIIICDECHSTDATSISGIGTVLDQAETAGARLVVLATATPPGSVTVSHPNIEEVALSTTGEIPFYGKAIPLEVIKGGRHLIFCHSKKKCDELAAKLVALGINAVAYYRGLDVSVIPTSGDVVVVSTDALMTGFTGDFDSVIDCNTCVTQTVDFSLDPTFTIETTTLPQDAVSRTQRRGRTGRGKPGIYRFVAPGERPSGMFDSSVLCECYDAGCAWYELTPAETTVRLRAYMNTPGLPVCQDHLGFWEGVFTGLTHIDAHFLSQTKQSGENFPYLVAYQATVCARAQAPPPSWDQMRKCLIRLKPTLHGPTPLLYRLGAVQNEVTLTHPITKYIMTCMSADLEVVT
protease, sequence (P27958 1658-1711 partner limits assumed): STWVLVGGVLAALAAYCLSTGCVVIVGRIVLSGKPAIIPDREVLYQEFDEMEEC

[3] = tested on: NS5A-augmented IRES-mediated translation; details: previously shown (Gonzalez et al. 2009); cited from earlier work
HCV = details: previously shown (Gonzalez et al. 2009); cited from earlier work
[4] = primer extension; reported in the literature; read-out: IC50 in in vitro Assays; cited from earlier work

## R-(Ahx-R)6—CONH2 [arginine tag control peptide, reference compound]
[1]; peptide added to Huh-7.5 cells without transfection reagent, immediately infected with Renilla reporter virus, assayed 24 hours post infection
  effect on intracellular viral protein production: did not show any effect
[2]
  effect of peptide treatment on NS5A-augmented IRES-mediated translation: fail to produce similar results

## C/C=C/C[C@@H](C)[C@@H](O)[C@H]1C(=O)N[C@@H](CC)C(=O)N(C)[C@H](SCCN(C)C)C(=O)N(C)[C@@H](CC(C)(C)O)C(=O)N[C@@H](C(C)C)C(=O)N(C)[C@@H](CC(C)C)C(=O)N[C@@H](C)C(=O)N[C@H](C)C(=O)N(C)[C@@H](CC(C)C)C(=O)N(C)[C@@H](CC(C)C)C(=O)N(C)[C@@H](C(C)C)C(=O)N1C [SCY-635]
replicon
  IC50: 140 nM

## CC[C@@H]1C[C@]1(NC(=O)[C@@H]1C[C@@H]2CN1C(=O)[C@H](C(C)(C)C)NC(=O)OCC(C)(C)CCCCc1cccc3c1CN(C3)C(=O)O2)C(=O)NS(=O)(=O)C1CC1 [MK-7009, Vaniprevir]
replicon
  IC50: 5 to 15 nM

## CC(C)C(=O)OC[C@H]1O[C@@H](n2ccc(N)nc2=O)[C@](C)(F)[C@@H]1OC(=O)C(C)C [R7128 (PSI-6130)]
replicon
  IC50: 600 nM

## Fc1ccccc1-c1nc2ccn(Cc3ccc(-c4ccc(C(F)(F)F)cc4C(F)(F)F)nn3)cc-2n1 [GS-9190, Tegobuvir]
polymerase
  IC50: > 71000 nM

## CC(C)(C)OC(=O)N[C@H]1CCCCC/C=C\[C@@H]2C[C@@]2(C(=O)NS(=O)(=O)C2CC2)NC(=O)[C@@H]2C[C@@H](OC(=O)N3Cc4cccc(F)c4C3)CN2C1=O [ITMN-191, Da noprevir]
replicon
  IC50: 1.8 nM

## C=C[C@@H]1C[C@]1(NC(=O)[C@@H]1C[C@@H](Oc2cc(-c3csc(NC(=O)C(C)C)n3)nc3c(Br)c(OC)ccc23)CN1C(=O)[C@@H](NC(=O)OC1CCCC1)C(C)(C)C)C(=O)O [Bl 201335]
replicon
  IC50: 3.1 to 50 nM

## LREEVSFRVGLHEYPVGSQLPCEP EPDVAVLTSM [C34]
Huh-7.5 cells; expressed from construct, data not shown
  cell viability by MTT on peptide expression: no effect
[2]; 293T cells transfected with IRES reporter, NS5A or GFP, and peptide construct, 48 hours post transfection
  effect of expressed peptide on NS5A-augmented IRES-mediated translation: block; also recorded: suppresses

## CC(C)[C@@H]1NC(=O)[C@H](CCCNC(=N)N)NC(=O)[C@H](Cc2ccccc2)NC(=O)[C@H](CO)NC(=O)[C@@H](NC(=O)CCCCCNC(=O)CCCCCNC(=O)[C@H](CCCNC(=N)N)NC(=O)CCCCCNC(=O)[C@H](CCCNC(=N)N)NC(=O)CCCCCNC(=O)[C@H](CCCNC(=N)N)NC(=O)CCCCCNC(=O)[C@H](CCCNC(=N)N)NC(=O)CCCCCNC(=O)[C@H](CCCNC(=N)N)NC(=O)CCCCCNC(=O)[C@H](CCCNC(=N)N)NC(=O)CCCCCNC(=O)[C@@H](N)CCCNC(=N)N)CSSC[C@@H](C(N)=O)NC(=O)[C@@H]2CCCN2C(=O)[C@H](Cc2ccc(O)cc2)NC(=O)[C@H](CCC(=O)O)NC(=O)[C@H](Cc2c[nH]cn2)NC(=O)[C@H](CC2CCCCC2)NC(=O)[C@H]2CCCN2C1=O [HCV4, Arg-(Ahx-Arg)6-Ahx-Ahx-Cys-Ser-Phe-Arg-Val-(D)Pro-Cha-His-Glu-Tyr-Pro-Cys] (H-R[Ahx]R[Ahx]R[Ahx]R[Ahx]R[Ahx]R[Ahx]R[Ahx][Ahx]CSFRV[dP][Cha]HEYPC-NH2; disulfide 16-27; N-terminus assumed)
[1]; read-out: IC50 in Cell Culture, reporter virus
  IC50: 0.542 nM
[1]; read-out: estimated IC50, intracellular viral protein production, Huh-7.5 cells treated with peptide 100 μM to 10 pM, immediately infected with HCV Renilla reporter virus, Renilla activity 24 hours post infection
  IC50: ~0.5 nM
Huh-7.5 cells; 10 μM
  MTT toxicity: slight toxicity
Huh-7.5 cells; 100 μM
  MTT toxicity: toxicity
Huh-7.5 cells; any concentration lower than 10 μM
  MTT toxicity: no cytotoxicity
[2]
  effect of peptide treatment on NS5A-augmented IRES-mediated translation: blocks

## COc1ccc2c(O[C@@H]3C[C@H]4C(=O)N[C@]5(C(=O)NS(=O)(=O)C6CC6)C[C@H]5/C=C\CCCCN(C)C(=O)[C@@H]4C3)cc(-c3nc(C(C)C)cs3)nc2c1C [TMC435]
protease
  IC50: 13 nM

## O=c1c(O)c(-c2ccc(O)c(O)c2)oc2cc(O)cc(O)c12 [Quercetin]
[3]
  effect on NS5A-augmented IRES-mediated translation: blocked
HCV
  effect on virus production: blocked

## CCc1cc(CC[C@]2(C3CCCC3)CC(O)=C(Cc3nc4nc(C)cc(C)n4n3)C(=O)O2)cc(CC)n1 [Filibuvir]
[4]
  IC50: 50 nM
